Columns and labels:
[1] = molecular target: T1, Human melanin-concentrating hormone (MCH1) (Homo sapiens, UniProt Q99705); assay: Radioligand binding, human melanin-concentrating hormone MCH1 membranes, FlashPlate, [125I]-S36057; conditions: compound at 10 μM; for A6: inhibition of radioligand binding: [125I]-S36057, human MCH1 membranes; for A6 radioligand binding inhibition: human MCH1 membranes
T1 construct: purchased Perkin Elmer Biosignal
Outline: (§1)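 Cloned human receptor membranes were coated onto FlashPlate wells and incubated with radioligand and compound (added from a 0.5 mM DMSO daughter plate) for 1 hour at room temperature in the dark. Scintillation counting gave percent inhibition, with DMSO defining total and reference ligand defining non-specific binding.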

[2] = molecular target: T2, Human μ-opioid (MOP) (Homo sapiens, UniProt P35372); assay: Radioligand binding, human μ-opioid (MOP) membranes, FlashPlate, [3H]-Naloxone; conditions: compound at 10 μM; for A7: inhibition of radioligand binding: [3H]-Naloxone, human MOP membranes; for A7 radioligand binding inhibition: human μ-opioid (MOP) membranes
T2 construct: purchased Perkin Elmer Biosignal
T2 sequence (P35372 whole entry): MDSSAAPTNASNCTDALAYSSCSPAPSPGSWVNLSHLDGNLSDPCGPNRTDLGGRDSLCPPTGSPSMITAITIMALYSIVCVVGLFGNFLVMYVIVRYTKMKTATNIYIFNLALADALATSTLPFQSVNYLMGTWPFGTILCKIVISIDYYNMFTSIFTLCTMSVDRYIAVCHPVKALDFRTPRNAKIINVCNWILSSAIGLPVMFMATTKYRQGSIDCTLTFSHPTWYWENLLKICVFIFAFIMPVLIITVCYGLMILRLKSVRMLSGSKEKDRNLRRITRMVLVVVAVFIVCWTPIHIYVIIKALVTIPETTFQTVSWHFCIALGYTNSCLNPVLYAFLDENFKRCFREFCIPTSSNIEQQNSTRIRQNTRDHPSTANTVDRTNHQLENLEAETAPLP
Outline: as §1

[3] = molecular target: T3, Human δ-opioid (DOP) (Homo sapiens, UniProt P41143); assay: Radioligand binding, human δ-opioid (DOP) membranes, FlashPlate, [3H]-Bremazocine; conditions: compound at 10 μM; for A1: inhibition of radioligand binding: [3H]-Bremazocine, human DOP membranes; for A1 radioligand binding inhibition: human δ-opioid (DOP) membranes
T3 construct: purchased Perkin Elmer Biosignal
T3 sequence (P41143 whole entry): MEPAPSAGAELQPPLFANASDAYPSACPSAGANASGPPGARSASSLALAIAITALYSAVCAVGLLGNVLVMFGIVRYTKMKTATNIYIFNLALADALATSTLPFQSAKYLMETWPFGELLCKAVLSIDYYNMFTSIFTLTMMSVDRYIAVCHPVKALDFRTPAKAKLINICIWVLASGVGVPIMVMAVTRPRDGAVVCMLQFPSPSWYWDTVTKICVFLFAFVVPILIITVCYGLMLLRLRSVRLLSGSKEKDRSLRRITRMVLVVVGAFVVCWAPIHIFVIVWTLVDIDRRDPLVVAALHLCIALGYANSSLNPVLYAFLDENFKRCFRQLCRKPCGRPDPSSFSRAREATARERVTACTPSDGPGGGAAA
Outline: as §1

[4] = molecular target: T4, Human neurokinin (NK1) (Homo sapiens, UniProt P25103); assay: Radioligand binding, human neurokinin NK1 membranes, filtration, [125I]-Substance P; conditions: compound at 10 μM; for A8: inhibition of radioligand binding: [125I]-Substance P, human NK1 membranes; for A8 radioligand binding inhibition: human neurokinin NK1 membranes
T4 construct: purchased Perkin Elmer Biosignal
T4 sequence (P25103 whole entry): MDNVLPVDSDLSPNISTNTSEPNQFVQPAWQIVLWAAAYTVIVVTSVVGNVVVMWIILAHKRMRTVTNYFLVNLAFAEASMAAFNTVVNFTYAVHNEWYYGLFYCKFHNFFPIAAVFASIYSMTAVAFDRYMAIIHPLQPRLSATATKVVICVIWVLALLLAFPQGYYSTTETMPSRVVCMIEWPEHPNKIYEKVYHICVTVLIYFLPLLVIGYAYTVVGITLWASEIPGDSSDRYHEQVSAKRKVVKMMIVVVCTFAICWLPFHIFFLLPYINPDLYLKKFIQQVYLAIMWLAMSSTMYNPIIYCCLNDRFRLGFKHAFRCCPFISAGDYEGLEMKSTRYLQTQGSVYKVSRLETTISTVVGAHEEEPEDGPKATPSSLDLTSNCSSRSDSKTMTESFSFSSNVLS
Outline: (§2)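 Filtration binding on cloned human receptor membranes (1 Unit/well), [125I]-Substance P for NK1 and [3H]-Diprenorphine for KOP, 1 h at room temperature. Filters PEI-presoaked, washed with cold 50 mM Tris-HCl pH 7.4, counted by scintillation; percent inhibition calculated, reference ligand defining non-specific binding.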

[5] = molecular target: T5, Human opioid (ORL1) (Homo sapiens, UniProt P41146); assay: Radioligand binding, human opioid ORL1 membranes, FlashPlate, [125I]-Nociceptin; conditions: compound at 10 μM, human ORL1 membranes; for A10: inhibition of radioligand binding: [125I]-Nociceptin
T5 construct: purchased Perkin Elmer Biosignal
T5 sequence (P41146 whole entry): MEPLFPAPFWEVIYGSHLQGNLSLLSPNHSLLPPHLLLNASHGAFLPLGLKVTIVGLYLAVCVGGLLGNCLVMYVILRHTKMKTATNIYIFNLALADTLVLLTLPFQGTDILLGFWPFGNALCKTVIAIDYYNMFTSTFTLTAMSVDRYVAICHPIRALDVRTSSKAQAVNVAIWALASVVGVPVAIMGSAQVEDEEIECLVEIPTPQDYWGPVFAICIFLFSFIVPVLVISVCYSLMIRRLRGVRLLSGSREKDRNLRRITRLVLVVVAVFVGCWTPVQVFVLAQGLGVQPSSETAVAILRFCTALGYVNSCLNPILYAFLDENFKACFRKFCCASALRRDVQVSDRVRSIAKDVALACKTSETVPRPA
Outline: as §1

[6] = molecular target: T6, Human melanocortin (MC5) (Homo sapiens, UniProt P33032); assay: Radioligand binding, human melanocortin MC5 membranes, FlashPlate, [125I]-NDP-αMSH; conditions: compound at 10 μM; for A5: inhibition of radioligand binding: [125I]-NDP-αMSH, human MC5 membranes; for A5 radioligand binding inhibition: human melanocortin MC5 membranes
T6 construct: purchased Perkin Elmer Biosignal
T6 sequence (P33032 whole entry): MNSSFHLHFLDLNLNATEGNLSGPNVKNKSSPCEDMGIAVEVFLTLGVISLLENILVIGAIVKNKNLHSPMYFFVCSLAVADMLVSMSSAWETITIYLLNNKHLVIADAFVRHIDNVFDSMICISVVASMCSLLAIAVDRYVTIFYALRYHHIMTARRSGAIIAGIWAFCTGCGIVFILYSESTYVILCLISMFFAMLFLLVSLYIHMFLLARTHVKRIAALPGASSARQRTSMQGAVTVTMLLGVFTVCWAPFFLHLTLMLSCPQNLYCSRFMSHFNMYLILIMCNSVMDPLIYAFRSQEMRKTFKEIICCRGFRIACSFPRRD
Outline: as §1

[7] = molecular target: T7, Human neuropeptide Y (NPY-Y1) (Homo sapiens, UniProt P25929); assay: Radioligand binding, human neuropeptide Y NPY-Y1 membranes, FlashPlate, [125I]-PYY; conditions: compound at 10 μM, human NPY-Y1 membranes; for A9: inhibition of radioligand binding: [125I]-PYY
T7 construct: purchased Perkin Elmer Biosignal
T7 sequence (P25929 1-384): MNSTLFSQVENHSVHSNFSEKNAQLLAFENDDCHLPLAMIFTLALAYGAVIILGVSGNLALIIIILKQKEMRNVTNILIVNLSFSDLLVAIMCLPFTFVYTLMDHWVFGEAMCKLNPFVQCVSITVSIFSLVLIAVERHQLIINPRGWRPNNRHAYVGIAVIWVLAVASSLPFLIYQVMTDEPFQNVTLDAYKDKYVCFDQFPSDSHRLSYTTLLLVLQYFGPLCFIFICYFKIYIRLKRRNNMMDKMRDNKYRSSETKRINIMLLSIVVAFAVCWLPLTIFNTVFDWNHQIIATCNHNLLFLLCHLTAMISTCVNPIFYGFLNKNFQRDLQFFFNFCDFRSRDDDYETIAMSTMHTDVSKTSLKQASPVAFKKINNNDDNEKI
Outline: as §1

[8] = molecular target: T8, Human κ-Opioid (KOP) (Homo sapiens, UniProt P41145); assay: Radioligand binding, human κ-opioid (KOP) membranes, filtration, [3H]-Diprenorphine; conditions: compound at 10 μM; for A2: inhibition of radioligand binding: [3H]-Diprenorphine, human KOP membranes; for A2 radioligand binding inhibition: human κ-opioid (KOP) membranes
T8 construct: purchased Perkin Elmer Biosignal
T8 sequence (P41145 whole entry): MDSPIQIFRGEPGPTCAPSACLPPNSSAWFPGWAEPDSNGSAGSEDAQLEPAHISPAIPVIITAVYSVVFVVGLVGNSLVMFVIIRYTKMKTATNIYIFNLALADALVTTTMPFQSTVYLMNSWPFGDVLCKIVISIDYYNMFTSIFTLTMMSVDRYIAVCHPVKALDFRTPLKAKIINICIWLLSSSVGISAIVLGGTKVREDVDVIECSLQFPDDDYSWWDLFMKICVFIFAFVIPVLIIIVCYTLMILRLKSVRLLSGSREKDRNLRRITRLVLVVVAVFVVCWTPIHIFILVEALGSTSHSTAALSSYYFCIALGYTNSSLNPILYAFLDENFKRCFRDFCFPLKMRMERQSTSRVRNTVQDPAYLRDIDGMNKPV
Outline: as §2

[9] = molecular target: T9, Mouse urotensin (mUR2) (Mus musculus, UniProt Q8VIH9); assay: Radioligand binding, mouse urotensin mUR2 membranes, FlashPlate, [125I]-Urotensin II; conditions: compound at 10 μM; for A11: inhibition of radioligand binding: [125I]-Urotensin II, mouse mUR2 membranes; for A11 radioligand binding inhibition: mouse urotensin mUR2 membranes
T9 construct: purchased Perkin Elmer Biosignal
T9 sequence (Q8VIH9 1-385): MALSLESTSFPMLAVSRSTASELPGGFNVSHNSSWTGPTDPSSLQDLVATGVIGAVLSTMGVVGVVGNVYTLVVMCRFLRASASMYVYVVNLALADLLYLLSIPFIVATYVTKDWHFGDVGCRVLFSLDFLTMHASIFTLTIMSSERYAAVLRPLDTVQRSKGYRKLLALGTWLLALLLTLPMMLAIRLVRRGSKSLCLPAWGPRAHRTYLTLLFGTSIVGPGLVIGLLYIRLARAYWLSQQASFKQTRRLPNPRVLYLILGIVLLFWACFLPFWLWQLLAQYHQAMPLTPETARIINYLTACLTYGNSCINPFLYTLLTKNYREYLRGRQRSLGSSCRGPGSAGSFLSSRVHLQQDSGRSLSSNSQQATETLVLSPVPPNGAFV
Outline: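 Cloned mouse urotensin (mUR2) receptor membranes from Perkin Elmer Biosignal were immobilized in FlashPlate microplates using a proprietary coating. Each well got 19.5 μl buffer, then 0.5 μl of DMSO, reference ligand, or compound. Adding 5 μl of [125I]-Urotensin II, diluted to 5× final concentration in binding buffer, started binding. Plates were sealed with TopSeal-A and incubated 1 hour at room temperature in the dark. Wells were counted for 30 seconds each on a TopCount after a 60-second delay, and percentage inhibition was calculated.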

[10] = molecular target: T10, Human Melanocortin (MC3) (Homo sapiens, UniProt P41968); assay: Radioligand binding, human melanocortin MC3 membranes, FlashPlate, [125I]-NDP-αMSH; conditions: compound at 10 μM; for A3: inhibition of radioligand binding: [125I]-NDP-αMSH, human MC3 membranes; for A3 radioligand binding inhibition: human melanocortin MC3 membranes
T10 construct: purchased Perkin Elmer Biosignal
T10 sequence (P41968 whole entry): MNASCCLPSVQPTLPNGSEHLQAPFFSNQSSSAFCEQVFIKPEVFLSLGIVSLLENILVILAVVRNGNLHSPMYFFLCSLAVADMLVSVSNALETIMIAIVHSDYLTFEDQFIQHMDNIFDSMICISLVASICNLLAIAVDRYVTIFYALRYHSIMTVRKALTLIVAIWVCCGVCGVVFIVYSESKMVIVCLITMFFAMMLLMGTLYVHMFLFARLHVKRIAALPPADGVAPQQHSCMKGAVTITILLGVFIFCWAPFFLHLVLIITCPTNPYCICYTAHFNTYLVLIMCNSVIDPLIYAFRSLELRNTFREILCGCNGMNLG
Outline: as §1

[11] = molecular target: T11, Human Melanocortin (MC4) (Homo sapiens, UniProt P32245); assay: Radioligand binding, human melanocortin MC4 membranes, FlashPlate, [125I]-NDP-αMSH; conditions: compound at 10 μM; for A4: inhibition of radioligand binding: [125I]-NDP-αMSH, human MC4 membranes; for A4 radioligand binding inhibition: human melanocortin MC4 membranes
T11 construct: purchased Perkin Elmer Biosignal
T11 sequence (P32245 whole entry): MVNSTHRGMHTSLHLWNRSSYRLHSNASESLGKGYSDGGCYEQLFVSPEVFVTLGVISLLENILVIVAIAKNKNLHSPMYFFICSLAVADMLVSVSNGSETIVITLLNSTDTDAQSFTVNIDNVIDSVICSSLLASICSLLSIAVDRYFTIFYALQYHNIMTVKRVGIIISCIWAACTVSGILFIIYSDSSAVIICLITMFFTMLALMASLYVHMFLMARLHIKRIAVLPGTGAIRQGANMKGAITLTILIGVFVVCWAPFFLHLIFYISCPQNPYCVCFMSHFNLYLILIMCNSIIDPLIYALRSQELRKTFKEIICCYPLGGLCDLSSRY
Outline: as §1

T1 sequence (Q99705 whole entry): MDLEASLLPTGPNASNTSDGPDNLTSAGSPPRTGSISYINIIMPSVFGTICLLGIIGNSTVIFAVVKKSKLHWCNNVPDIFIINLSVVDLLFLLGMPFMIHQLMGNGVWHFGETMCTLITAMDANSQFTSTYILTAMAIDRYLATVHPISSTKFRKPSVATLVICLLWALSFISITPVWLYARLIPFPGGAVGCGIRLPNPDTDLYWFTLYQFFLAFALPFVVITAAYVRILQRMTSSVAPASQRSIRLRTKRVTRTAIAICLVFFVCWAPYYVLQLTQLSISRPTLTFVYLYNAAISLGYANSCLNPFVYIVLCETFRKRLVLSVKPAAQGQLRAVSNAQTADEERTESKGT

Compound	A6: inhibition of radioligand binding ([1]; 10 µM)	A7: inhibition of radioligand binding [2]	A1: inhibition of radioligand binding [3]	A8: inhibition of radioligand binding [4]	A5: inhibition of radioligand binding [6]	A9: inhibition of radioligand binding [7]	A11: inhibition of radioligand binding [9]	A3: inhibition of radioligand binding [10]	A4: inhibition of radioligand binding [11]	A6 radioligand binding inhibition [1]	A7 radioligand binding inhibition [2]	A1 radioligand binding inhibition [3]	A8 radioligand binding inhibition [4]	A10 radioligand binding inhibition [5]	A5 radioligand binding inhibition [6]	A9 radioligand binding inhibition [7]	A2 radioligand binding inhibition [8]	A11 radioligand binding inhibition [9]	A3 radioligand binding inhibition [10]	A4 radioligand binding inhibition [11]	other results
NCCCC(=O)NC1C(OCc2ccc3ccccc3c2)OC(COCc2ccc(Cl)cc2)C(O)C1OCc1ccc2ccccc2c1 (single isomer, unassigned) [compound 463]	+ (“+” indicates greater than 50% inhibition at 10 μM)	− (“−” indicates less than 50% inhibition at 10 μM)	− (“−” indicates less than 50% inhibition at 10 μM)	+ (“+” indicates greater than 50% inhibition at 10 μM)	+ (“+” indicates greater than 50% inhibition at 10 μM)	− (“−” indicates less than 50% inhibition at 10 μM)	− (“−” indicates less than 50% inhibition at 10 μM)	+ (“+” indicates greater than 50% inhibition at 10 μM)	+ (“+” indicates greater than 50% inhibition at 10 μM)	–	–	–	–	–	–	–	–	–	–	–	A10: inhibition of radioligand binding ([5]; 10 µM): − (“−” indicates less than 50% inhibition at 10 μM); A2: inhibition of radioligand binding ([8]; 10 µM): + (“+” indicates greater than 50% inhibition at 10 μM)
COC[C@H]1OC(OCc2ccc(Cl)cc2)[C@H](NC(=O)CNC(=N)N)[C@@H](OCc2ccc(Cl)cc2)[C@@H]1O (stereo partly shown) [compound 37]	–	–	–	–	–	–	–	–	–	+ (“+” indicates greater than 50% inhibition at 10 μM)	− (“−” indicates less than 50% inhibition at 10 μM)	− (“−” indicates less than 50% inhibition at 10 μM)	− (“−” indicates less than 50% inhibition at 10 μM)	− (“−” indicates less than 50% inhibition at 10 μM)	+ (“+” indicates greater than 50% inhibition at 10 μM)	− (“−” indicates less than 50% inhibition at 10 μM)	− (“−” indicates less than 50% inhibition at 10 μM)	− (“−” indicates less than 50% inhibition at 10 μM)	+ (“+” indicates greater than 50% inhibition at 10 μM)	+ (“+” indicates greater than 50% inhibition at 10 μM)	–
NCCC(=O)N[C@H]1C(OCc2ccc3ccccc3c2)O[C@H](COCc2ccccc2)[C@@H](O)[C@@H]1OCc1ccc(Cl)cc1 (stereo partly shown) [compound 439]	− (“−” indicates less than 50% inhibition at 10 μM)	− (“−” indicates less than 50% inhibition at 10 μM)	− (“−” indicates less than 50% inhibition at 10 μM)	+ (“+” indicates greater than 50% inhibition at 10 μM)	–	− (“−” indicates less than 50% inhibition at 10 μM)	− (“−” indicates less than 50% inhibition at 10 μM)	− (“−” indicates less than 50% inhibition at 10 μM)	–	–	–	–	–	–	–	–	–	–	–	–	A10: inhibition of radioligand binding [5]: − (“−” indicates less than 50% inhibition at 10 μM); A5: inhibition of radioligand binding ([6]; 10 µM): + (“+” indicates greater than 50% inhibition at 10 μM); A2: inhibition of radioligand binding [8]: − (“−” indicates less than 50% inhibition at 10 μM); A4: inhibition of radioligand binding ([11]; 10 µM): + (“+” indicates greater than 50% inhibition at 10 μM)
CO[C@H]1[C@H](O)[C@@H](COCc2ccc3ccccc3c2)OC(OCc2ccccc2)[C@@H]1NC(=O)CCCNC(=N)N (stereo partly shown) [compound 89]	–	–	–	–	–	–	–	–	–	− (“−” indicates less than 50% inhibition at 10 μM)	+ (“+” indicates greater than 50% inhibition at 10 μM)	− (“−” indicates less than 50% inhibition at 10 μM)	+ (“+” indicates greater than 50% inhibition at 10 μM)	− (“−” indicates less than 50% inhibition at 10 μM)	− (“−” indicates less than 50% inhibition at 10 μM)	− (“−” indicates less than 50% inhibition at 10 μM)	− (“−” indicates less than 50% inhibition at 10 μM)	− (“−” indicates less than 50% inhibition at 10 μM)	− (“−” indicates less than 50% inhibition at 10 μM)	− (“−” indicates less than 50% inhibition at 10 μM)	–
N=C(N)NCCC(=O)NC1C(OCc2ccc(Cl)cc2)OC(COCc2ccccc2)C(O)C1OCc1ccc(-c2ccccc2)cc1 (stereo not shown) [compound 433]	–	− (“−” indicates less than 50% inhibition at 10 μM)	− (“−” indicates less than 50% inhibition at 10 μM)	+ (“+” indicates greater than 50% inhibition at 10 μM)	+ (“+” indicates greater than 50% inhibition at 10 μM)	− (“−” indicates less than 50% inhibition at 10 μM)	− (“−” indicates less than 50% inhibition at 10 μM)	− (“−” indicates less than 50% inhibition at 10 μM)	+ (“+” indicates greater than 50% inhibition at 10 μM)	–	–	–	–	–	–	–	–	–	–	–	A6: inhibition of radioligand binding [1]: + (“+” indicates greater than 50% inhibition at 10 μM); A10: inhibition of radioligand binding [5]: − (“−” indicates less than 50% inhibition at 10 μM); A2: inhibition of radioligand binding [8]: − (“−” indicates less than 50% inhibition at 10 μM)

Source: patent US20080009418A1, “Selective Inhibitors” (Alchemia LTD., priority 2004, published 2008)
